Measurements reported in the supplement of paper PMC10307832.

Experiments:
Assay in all cases: relative viability (nuclei count vs DMSO), 5 days (fraction); higher = more cells survive
Bromopyruvate + OSI-027 = compound: C(C(=O)C(=O)O)Br [Bromopyruvate] + COc1cccc2cc(-c3nc([C@H]4CC[C@H](C(=O)O)CC4)n4ncnc(N)c34)[nH]c12 [OSI-027] (partner 0.5 µM)
In short: (§1)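 Medians of duplicate plates are given as relative viability. That measure is the nuclei count in treated wells divided by the count in vehicle wells. Counts were taken on 4× images of lung cancer cell lines in 1536-well plates, 5 days after pin-tool dosing the day after seeding with one drug alone or a fixed anchor-drug dose plus five library-drug doses (not always all listed) in √10 steps.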

[1] = compound: CC(O)(CS(=O)(=O)c1ccc(F)cc1)C(=O)Nc1ccc(C#N)c(C(F)(F)F)c1 [Bicalutamide] + C[C@]1(O)C[C@@H](c2nc(-c3ccc4ccc(-c5ccccc5)nc4c3)c3c(N)nccn32)C1 [Linsitinib] (partner 1 µM)
In short: as §1

[2] = compound: C(C(=O)C(=O)O)Br [Bromopyruvate] + O=C(CCCCCCC(=O)Nc1ccccc1)NO [Vorinostat] (partner 1 µM)
In short: as §1

[3] = compound: CC(O)(CS(=O)(=O)c1ccc(F)cc1)C(=O)Nc1ccc(C#N)c(C(F)(F)F)c1 [Bicalutamide] + CC1(C)CCC(c2ccc(Cl)cc2)=C(CN2CCN(c3ccc(C(=O)NS(=O)(=O)c4ccc(N[C@H](CCN5CCOCC5)CSc5ccccc5)c(S(=O)(=O)C(F)(F)F)c4)cc3)CC2)C1 [Navitoclax] (partner 0.5 µM)
In short: as §1

| Cell Line | relative viability (Bromopyruvate + OSI-027; first compound 1 µM) | relative viability (Bromopyruvate + OSI-027; first compound 3.162 µM) | relative viability (Bromopyruvate + OSI-027; first compound 10 µM) | relative viability (Bromopyruvate + OSI-027; first compound 31.62 µM) | relative viability (Bromopyruvate + OSI-027; first compound 100 µM) | relative viability ([1]; first compound 0.08 µM) | relative viability ([1]; first compound 0.253 µM) | relative viability ([1]; first compound 0.8 µM) | relative viability ([1]; first compound 2.53 µM) | relative viability ([2]; first compound 1 µM) | relative viability ([2]; first compound 3.162 µM) | relative viability ([2]; first compound 10 µM) | relative viability ([2]; first compound 31.62 µM) | relative viability ([2]; first compound 100 µM) | relative viability ([3]; first compound 0.08 µM) | relative viability ([3]; first compound 0.253 µM) | relative viability ([3]; first compound 0.8 µM) | relative viability ([3]; first compound 2.53 µM) |
| --- | --- | --- | --- | --- | --- | --- | --- | --- | --- | --- | --- | --- | --- | --- | --- | --- | --- | --- |
| 201T | 0.508 | 0.752 | 0.71 | 0.763 | 0.638 | 1.04 | 1.02 | 1.07 | 1.04 | 0.967 | 1.01 | 0.984 | 0.912 | 0.971 | 1.18 | 1.24 | 1.18 | 1.22 |
| A549 | – | – | – | – | – | 0.567 | 0.531 | 0.696 | 0.527 | – | – | – | – | – | 1.33 | 1.16 | 1.36 | 1.08 |
| A-427 | 0.562 | 0.466 | 0.418 | 0.42 | 0.422 | 1.16 | 1.15 | 1.21 | 1.18 | 0.87 | 0.899 | 0.841 | 0.767 | 0.835 | 0.986 | 1.03 | 0.98 | 0.927 |
| ABC-1 | 0.425 | 0.471 | 0.513 | 0.521 | 0.548 | 0.912 | 0.889 | 0.768 | 0.861 | 1.27 | – | – | – | 0.612 | – | – | – | – |
| BEN | 0.307 | 0.296 | 0.293 | 0.277 | 0.298 | 1.04 | 0.802 | 1.26 | 0.966 | 0.588 | 0.581 | 0.485 | 0.608 | 0.411 | 0.0525 | 0.0535 | 0.0851 | 0.0653 |
| CAL-12T | 0.578 | 0.675 | 0.85 | 0.595 | 0.764 | 0.69 | 0.777 | 1.04 | 0.814 | 0.696 | 0.769 | 0.762 | 0.705 | 0.489 | 1.22 | 1.39 | 1.35 | 1.09 |
| COR-L23 | 0.817 | 0.879 | 0.977 | 0.705 | 0.401 | 0.997 | 0.919 | 1.16 | 0.732 | 0.381 | 0.473 | 0.432 | 0.387 | 0.255 | 1.17 | 1.02 | 1.11 | 0.898 |
| COR-L 105 | 0.563 | 0.701 | 0.712 | 0.671 | 0.639 | 0.941 | 0.93 | 0.899 | 0.815 | 0.708 | 0.68 | 0.645 | 0.665 | 0.411 | 0.694 | 0.696 | 0.726 | 0.703 |
| Calu-6 | – | – | – | – | – | 0.972 | 0.999 | 1.12 | 0.98 | – | – | – | – | – | 0.895 | 0.827 | 0.842 | 0.705 |
| ChaGo-K-1 | 0.715 | 0.521 | 0.629 | 0.578 | 0.493 | – | – | – | – | 0.818 | 0.755 | 0.879 | 0.703 | 0.67 | 0.983 | 1.02 | 1.17 | 0.793 |
| EBC-1 | – | – | – | – | – | 0.874 | 0.874 | 1.05 | 0.858 | – | – | – | – | – | 0.477 | 0.491 | 0.372 | 0.296 |
| EKVX | 0.746 | 0.691 | 0.827 | 0.666 | 0.761 | 1.06 | 1.04 | 1.06 | 0.894 | 0.668 | 0.685 | 0.718 | 0.729 | 0.713 | 1.02 | 1.01 | 1.15 | 0.894 |
| EMC-BAC-2 | 0.384 | 0.382 | 0.397 | 0.397 | 0.405 | 0.854 | 0.796 | 0.803 | 0.756 | 0.719 | 0.336 | 0.277 | – | 0.389 | 1.19 | 1.11 | 1.21 | 1.16 |
| EPLC-272H | 0.245 | 0.244 | 0.359 | 0.251 | 0.301 | 1.17 | 1.13 | 1.33 | 1.16 | 0.36 | 0.38 | 0.359 | 0.44 | 0.347 | 1.33 | 1.03 | 1.23 | 0.956 |
| H3255 | 0.523 | 0.637 | 0.683 | 0.679 | 0.573 | 0.949 | 0.848 | 1.08 | 0.867 | 0.941 | 0.781 | 0.771 | 0.763 | 0.85 | 0.524 | 0.489 | 0.631 | 0.4 |
| HARA | 0.518 | 0.567 | 0.624 | 0.436 | 0.571 | 0.953 | 0.797 | 1.06 | 1.1 | 0.692 | 0.511 | 0.628 | 0.528 | 0.37 | 1.15 | 1.15 | 1.11 | 1.13 |
| HCC-15 | 0.711 | 0.779 | 0.781 | 0.715 | 0.654 | 0.826 | 0.837 | 0.932 | 0.969 | 0.792 | 0.838 | 0.782 | 0.818 | 0.686 | 0.757 | 0.685 | 0.761 | 0.712 |
